Ends that are not written are not given here.
Columns and labels:
MC4R + GPR139 = MC4R + GPR139 (Homo sapiens, UniProt Q6DWJ6); assay: Calcium mobilization, HEK-293 transiently expressing MC4R + GPR139; type: cell-based; details: MC4R + GPR139; 10 μM JNJ-3792165 or 1 μM HS-024
Procedure: (§1) Human MC3R (NM_019888), MC4R (NM_005912), and MC5R (NM_005913) were transiently expressed in HEK-293 cells with and without human GPR139 (KR081941) or the chimeric G-protein Gα16. All genes were cloned into pCIneo (Promega, Madison, WI, United States, #E1841). HEK-293 cells were cultured in DMEM/F12 (Gibco, Grand Island, NY, United States, #11039-021), 10% FBS (Hyclone, Logan, UT, United States, # SH300700.03), 50 units/ml penicillin and 50 μg/ml streptomycin (Mediatech, Manassas, VA, United States, #30-001-CI). Cells were seeded at 4 × 10^6 cells in 10 cm dishes and allowed to grow overnight at 37°C, 5% CO2. On the day of transfection, culture media was replaced with F12-K (Mediatech, Manassas, VA, United States, #10-025-CV), 10% FBS, 20 mM HEPES (Hyclone, Logan, UT, United States, #SH30237.01) and transfected with 15 μg DNA (10 μg MCR:5 μg pCIneo, 10 μg MCR:5 μg Gα16 or 7.5 μg MCR:7.5 μg GPR139) using FuGene HD (Promega, Madison, WI, United States, #E2311) according to manufacturer’s instructions. MC3R, MC4R, and MC5R were also transiently expressed in the following GPR139 stably expressing cell lines using the FuGENE HD method: HEK-293 GPR139 clone#33, CHO-TREx GPR139 clone#18, and SK-N-MC/CRE TREx GPR139 clone#35. Stable cell lines were established according to method previously described ([Liu et al., 2015]).
(§2) Intracellular calcium mobilization was measured with the BD calcium kit (BD Bioscience, San Jose, CA, United States). The recombinant cell lines expressing MC3R, MC4R, and MC5R with and without GPR139 or Gα16 were seeded in culture media at a density of 50,000 cells/well into 96-well black/clear-bottom poly-D-lysine treated tissue culture plates. Cells were incubated overnight at 37°C and 5% CO2. Next day, culture media was removed and cells were washed with HBSS prior to dye-loading for 1 h at 37°C and 5% CO2. Agonist stimulation and intracellular calcium measurements were done on the FLIPR Tetra (Molecular Devices, Sunnyvale, CA, United States). For receptor inhibition analysis, antagonists (1 μM HS-024 or 10 μM JNJ-3792165) were added off-line 15 min prior to agonist addition on the Tetra. For G-protein inhibitor experiments, cells were treated with 1 μM YM-254890 for 5 min prior to agonist additions on the Tetra. […] Responses in Figure 6 were normalized to its respective agonist response without antagonist. EC50s were calculated by fitting a three-parameter logistic curve using least-squares non-linear regression analysis as implemented in Graphpad Prism 7.0.

GPR139 [1] = target: T1, GPR139 (Homo sapiens, UniProt Q6DWJ6); assay: [3H]JNJ-63533054 radioligand binding assay, membranes of CHO-TREx cells stably expressing human GPR139; parameters: expressed in transfected cells; host or cells: CHO-TREx GPR139 clone#18; details: 10 nM radioligand; CHO-TREx GPR139 membranes; read-out: pKi, displacement of [3H]JNJ-63533054 (converted)
T1 sequence (Q6DWJ6 1-353): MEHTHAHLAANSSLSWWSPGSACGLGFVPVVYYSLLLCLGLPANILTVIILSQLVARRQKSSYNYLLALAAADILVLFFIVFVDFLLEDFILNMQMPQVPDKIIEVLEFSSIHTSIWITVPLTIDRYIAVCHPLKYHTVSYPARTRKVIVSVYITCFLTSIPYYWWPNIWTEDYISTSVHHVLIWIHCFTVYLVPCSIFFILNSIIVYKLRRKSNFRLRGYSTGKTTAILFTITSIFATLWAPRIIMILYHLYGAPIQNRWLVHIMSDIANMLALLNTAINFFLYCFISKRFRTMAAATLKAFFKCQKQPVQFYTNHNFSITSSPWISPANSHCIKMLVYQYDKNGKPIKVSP
Procedure: Reaction was terminated by filtration through GF/C filterplates pre-treated with PEI (polyethyleneimine) followed by washes with ice-cold TE buffer. Filterplates were dried in a 60°C oven followed by addition of Microscint-0. Bound radioactivity was read on a Topcount scintillation counter. […] Half-maximal inhibitory concentrations (IC50s) of test compounds were calculated by fitting a three-parameter logistic curve using least-squares non-linear regression analysis as implemented in Graphpad Prism 7.0. The Top plateau was fixed at 100 and the Bottom was fixed at 0.

[2] = test system: over 50 other neurotransmitter and neuropeptide receptors including the MCRs; assay: Selectivity panel of over 50 other neurotransmitter and neuropeptide receptors; type: binding; details: at 1 μM
MC5R + GPR139 = MC5R + GPR139 (Homo sapiens, UniProt Q6DWJ6); assay: Calcium mobilization, HEK-293 transiently expressing MC5R + GPR139; type: cell-based; details: MC5R + GPR139; 10 μM JNJ-3792165 or 1 μM HS-024
Procedure: as §1, §2

GPR139 [3] = target: T1, GPR139; assay: [35S]-GTPγS binding assay, membranes of CHO-TREx cells stably expressing GPR139; type: biochemical; parameters: expressed in transfected cells; host or cells: CHO-TREx GPR139 clone#18
Procedure: For G-protein inhibitor experiments, CHO-TRex cells stably expressing GPR139 were treated with 100 ng/ml pertussis toxin (Gi/o inhibitor) overnight prior to harvesting cells for membrane preparations. […] Reactions were terminated by rapid filtration through GF/C filterplates (Perkin-Elmer, Waltham, MA, United States) on a Cell Harvester (Perkin-Elmer, Waltham, MA, United States). Filterplates were washed three times with ice-cold wash buffer (50 mM Tris, 5 mM MgCl2) and Microscint-40 was added to each well. Bound radioactivity was measured on a Topcount scintillation counter (Perkin-Elmer, Waltham, MA, United States). […] EC50s were calculated by modeling the response associated with the logarithm of concentration as a three-parameter logistic curve with the Bottom plateau parameter fixed at 0. The fit was obtained using least-squares non-linear regression as implemented in GraphPad Prism 7.0.

MC3R + GPR139 = MC3R + GPR139 (Homo sapiens, UniProt Q6DWJ6); assay: Calcium mobilization, HEK-293 transiently expressing MC3R + GPR139; type: cell-based; details: MC3R + GPR139; 10 μM JNJ-3792165 or 1 μM HS-024
Procedure: Intracellular calcium mobilization was measured with the BD calcium kit (BD Bioscience, San Jose, CA, United States). The recombinant cell lines expressing MC3R, MC4R, and MC5R with and without GPR139 or Gα16 were seeded in culture media at a density of 50,000 cells/well into 96-well black/clear-bottom poly-D-lysine treated tissue culture plates. Cells were incubated overnight at 37°C and 5% CO2. Next day, culture media was removed and cells were washed with HBSS prior to dye-loading for 1 h at 37°C and 5% CO2. Agonist stimulation and intracellular calcium measurements were done on the FLIPR Tetra (Molecular Devices, Sunnyvale, CA, United States). […] EC50s were calculated by fitting a three-parameter logistic curve using least-squares non-linear regression analysis as implemented in Graphpad Prism 7.0.

GPR139 [4] = target: T1, GPR139; assay: Calcium mobilization assay, antagonism at GPR139 (cell line not stated); type: cell-based; parameters: expressed in transfected cells; host or cells: CHO-TREx GPR139 clone#18; details: read-out: pKb, antagonist in calcium mobilization assay (converted)
Procedure: as §2

GPR139 [5] = target: T1, GPR139; parameters: method as in Liu et al., 2015; details: ref Liu et al., 2015; cited from earlier work
GPR139 [6] = target: T1, GPR139; assay: Calcium mobilization, SK-N-MC/CRE cells stably expressing human GPR139; type: cell-based; parameters: expressed in transfected cells; host or cells: CHO-TREx GPR139 clone#18; details: SK-N-MC/CRE stable GPR139
Procedure: as §1, §2

GPR139 [7] = target: T1, GPR139; assay: Calcium mobilization, HEK-293 cells stably expressing human GPR139; type: cell-based; parameters: expressed in transfected cells; details: HEK-293 stable GPR139
Procedure: as §1, §2

MC4R + Gα16 = MC4R + Gα16 (Homo sapiens, UniProt P32245); assay: Calcium mobilization, CHO-K1 cells transiently expressing MC4R + Gα16; type: cell-based; parameters: expressed in transfected cells; host or cells: CHO-K1, transient; details: data not shown
GPR139 [8] = target: T1, GPR139; parameters: expressed in transfected cells; host or cells: CHO-TREx GPR139 clone#18; method as in Nøhr et al. (2017b); details: ref Nøhr et al. (2017b), cited from earlier work; for Activation of GPR139, potency range in words: CHO cells stably expressing human GPR139
GPR139 [9] = target: T1, GPR139; assay: Calcium mobilization, CHO-TREx cells stably expressing human GPR139; type: cell-based; parameters: expressed in transfected cells; host or cells: CHO-TREx GPR139 clone#18; details: CHO-TREx stable GPR139
MC4R = target: T2, MC4R (Homo sapiens, UniProt P32245); assay: Calcium mobilization, HEK-293 transiently expressing MC4R; type: cell-based; details: HEK293; HEK-293 transient MC4R alone; read-out: Emax, calcium release in MC4R expressing cells
T2 construct: expressed in transfected cells; host or cells: HEK-293, pCIneo, transient (FuGene HD)
Procedure: as §1, §2

Sequence of MC3R + GPR139 (P41968 whole entry partner, one chain of several): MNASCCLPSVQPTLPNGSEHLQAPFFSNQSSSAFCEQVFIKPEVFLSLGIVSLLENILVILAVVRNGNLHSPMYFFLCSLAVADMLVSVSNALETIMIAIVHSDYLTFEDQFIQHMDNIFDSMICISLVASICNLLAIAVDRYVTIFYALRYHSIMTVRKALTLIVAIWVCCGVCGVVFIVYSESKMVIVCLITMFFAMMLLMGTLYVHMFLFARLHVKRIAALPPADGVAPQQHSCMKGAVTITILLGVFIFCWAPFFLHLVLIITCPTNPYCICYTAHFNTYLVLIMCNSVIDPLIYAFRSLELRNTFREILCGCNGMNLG
Sequence of MC4R + GPR139 (P32245 whole entry partner, one chain of several): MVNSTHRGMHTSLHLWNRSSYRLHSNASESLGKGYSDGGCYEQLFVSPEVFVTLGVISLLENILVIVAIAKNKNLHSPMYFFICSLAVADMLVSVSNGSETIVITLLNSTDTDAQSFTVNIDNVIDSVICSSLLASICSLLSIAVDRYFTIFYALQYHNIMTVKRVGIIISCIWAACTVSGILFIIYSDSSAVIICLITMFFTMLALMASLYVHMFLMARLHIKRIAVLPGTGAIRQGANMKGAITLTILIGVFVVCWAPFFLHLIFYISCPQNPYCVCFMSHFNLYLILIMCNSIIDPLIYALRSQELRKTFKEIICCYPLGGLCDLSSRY
Sequence of MC5R + GPR139 (P33032 whole entry partner, one chain of several): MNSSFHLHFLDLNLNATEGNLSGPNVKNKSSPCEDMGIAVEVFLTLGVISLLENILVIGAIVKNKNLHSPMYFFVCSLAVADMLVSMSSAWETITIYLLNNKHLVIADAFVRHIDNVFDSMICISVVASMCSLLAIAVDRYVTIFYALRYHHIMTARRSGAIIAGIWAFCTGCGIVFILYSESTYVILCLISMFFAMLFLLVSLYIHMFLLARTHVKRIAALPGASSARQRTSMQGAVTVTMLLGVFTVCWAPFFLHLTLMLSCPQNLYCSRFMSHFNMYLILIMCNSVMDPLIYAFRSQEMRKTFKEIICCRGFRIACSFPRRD
Sequence of MC4R + Gα16 (P32245 whole entry): as the sequence (P32245 whole entry partner, one chain of several) above
T2 sequence (P32245 whole entry): as the sequence (P32245 whole entry partner, one chain of several) above

Calcium mobilization activity, in words (GPR139 [7]) | Calcium response in CHO-K1 cells co-expressing MC4R + Gα16 (MC4R + Gα16) | Emax (MC4R) | Molecule | Antagonist effect on ACTH, α-MSH and β-MSH induced calcium response (MC4R + GPR139) | Antagonist effect on calcium response to GPR139 agonists (JNJ-63533054, TC-09311, L-Trp) (MC4R + GPR139) | Antagonist effect on ACTH, α-MSH and β-MSH induced calcium response (MC5R + GPR139) | Antagonist effect on calcium response to GPR139 agonists (JNJ-63533054, TC-09311, L-Trp) (MC5R + GPR139) | Antagonist effect on ACTH, α-MSH and β-MSH induced calcium response (MC3R + GPR139) | Antagonist effect on calcium response to GPR139 agonists (JNJ-63533054, TC-09311, L-Trp) (MC3R + GPR139) | Activation of GPR139, potency range in words (GPR139 [8]) | further results
 |  |  | Cc1cccc(NC(=O)c2cc(C)n(Cc3c(Cl)cccc3Cl)n2)c1 [JNJ-3792165, 1H-pyrazole-3-carboxamide, 1-[(2,6-dichlorophenyl)methyl]-5-methyl-N-(3-methylphenyl)] | did not block | fully inhibited | did not block | fully inhibited | did not block | fully inhibited |  | Ki (GPR139 [1]): 20 nM; Inhibition at any receptor other than GPR139 (selectivity panel) [2]: less than 50%; Kb (GPR139 [3]; read-out: pKb, antagonist in [35S]GTPγS assay (converted)): 39.8 nM; Kb (GPR139 [4]): 126 nM
 |  |  | N[C@@H](Cc1ccccc1)C(=O)O [L-Phe, L-phenylalanine] |  |  |  |  |  |  |  | EC50 (GPR139 [5]): 30000 to 300000 nM
No activity was detected | calcium response | 24% | CSCC[C@H](NC(=O)[C@H](CCCNC(=N)N)NC(=O)[C@H](Cc1ccc(O)cc1)NC(=O)[C@@H]1CCCN1C(=O)CNC(=O)[C@H](CCC(=O)O)NC(=O)[C@H](CC(=O)O)NC(=O)[C@H](CCCCN)NC(=O)[C@H](CCCCN)NC(=O)[C@H](CCC(=O)O)NC(=O)[C@H](C)N)C(=O)N[C@@H](CCC(=O)O)C(=O)N[C@@H](Cc1c[nH]cn1)C(=O)N[C@@H](Cc1ccccc1)C(=O)N[C@@H](CCCNC(=N)N)C(=O)N[C@@H](Cc1c[nH]c2ccccc12)C(=O)NCC(=O)N[C@@H](CO)C(=O)N1CCC[C@H]1C(=O)N1CCC[C@H]1C(=O)N[C@@H](CCCCN)C(=O)N[C@@H](CC(=O)O)C(=O)O [β-MSH, β melanocyte stimulating hormone] |  |  |  |  |  |  | sub- to low micromolar range | Calcium mobilization activity, in words (GPR139 [6]): No activity was detected; Activation of GPR139 ([35S]-GTPγS incorporation), in words (GPR139 [3]; up to 30 μM): did not activate GPR139; Calcium mobilization activity, in words (GPR139 [9]): No activity was detected
 |  |  | HS-024 | reduction in both potency and efficacy | had no effect | fully blocked | reduced the efficacy | rightward shift of the EC50 | had no effect |  | 
did not increase calcium mobilization | calcium response | 27% | SYSMEHFRWGKPVGKKRRPVKVYPNGAEDESAEAFPLEF [ACTH, adrenocorticotropic hormone] |  |  |  |  |  |  | sub- to low micromolar range | Fold less potent on GPR139 than on MC4R (GPR139 [8]): 100 fold

Source: PMC5863515, “Re-evaluation of Adrenocorticotropic Hormone and Melanocyte Stimulating Hormone Activation of GPR139 in Vitro” (Frontiers in Pharmacology, 2018)
